Measured values: patent publication US6737383B1, “Herbicidal oxadiazolidines” (priority 1999, dated 2004)

Legend:
[1] = test system: bermuda-grass; experiment: Test D bermudagrass; format: in vivo, Cynodon dactylon; details: Preemergence, 0 to 100 scale
Description: (§1) Seeds, tubers, or plant parts of Alexandergrass (Brachiaria plantaginea), bermuda-grass (Cynodon dactylon), common pursiane (Portulaca oleracea), common ragweed (Ambrosia elatior), common groundsel (Senecio vulgaris), dallisgrass (Paspalum dilatatum), goosegrass (Eleusine indica), guineagrass (Panicum maximum), itchgrass (Rottboellia exaltata), Johnson grass (Sorghum halepense), large crabgrass (Digitaria sanguinalis), pitted morningglory (Ipomoea lacunosa), purple nutsedge (Cyperus rotundus), sandbur (Cenchrus echinatus), sourgrass (Trichachne insularis), Spanishneedles (Bidens bipinnata), surinam grass (Brachiaria decumbens) and tall mallow (Malva sylvestris) were planted into greenhouse pots of flats containing greenhouse planting medium. Plant species were grown in separate pots or individual compartments. Preemergence applications were made within one day of planting the seed or plant part.
(§2) Test chemicals were formulated in a non-phytotoxic solvent mixture which included a surfactant and applied preemergence to the surface of the pot containing seeds in a sandy loam soil. Untreated control pots and treated pots were placed in the greenhouse for growth and visually evaluated for injury 14 to 21 days after herbicide application. Plant response ratings, summarized in Table C, are based on a 0 to 100 scale where 0 is no injury and 100 is complete control. A dash (−) response means no test result.

[2] = test system: common pursiane; experiment: Test D common purslane; format: in vivo, Portulaca oleracea; details: Preemergence, 0 to 100 scale
Description: as §1, §2

[3] = test system: common ragweed; experiment: Test D common ragweed; format: in vivo, Ambrosia elatior; details: Preemergence, 0 to 100 scale
Method in brief: (§3)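 Scoring used a 0–100 visual injury scale, with 0 meaning no effect and 100 complete control, assessed 14–21 days after application alongside untreated pots. Preemergence treatments went onto sandy loam surfaces of separately potted seeds within a day of sowing.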

[4] = test system: dallisgrass; experiment: Test D dallisgrass; format: in vivo, Paspalum dilatatum; details: Preemergence, 0 to 100 scale
Description: as §1, §2

[5] = test system: guineagrass; experiment: Test D guineagrass; format: in vivo, Panicum maximum; details: Preemergence, 0 to 100 scale
Method in brief: as §3

[6] = test system: itchgrass; experiment: Test D itchgrass; format: in vivo, Rottboellia exaltata; details: Preemergence, 0 to 100 scale
Description: as §1, §2

[7] = test system: large crabgrass; experiment: Test D large crabgrass; format: in vivo, Digitaria sanguinalis; details: Preemergence, 0 to 100 scale
Method in brief: as §3

[8] = test system: pitted morningglory; experiment: Test D pitted morningglory; format: in vivo, Ipomoea lacunosa; details: Preemergence, 0 to 100 scale
Description: as §1
Test chemicals were formulated in a non-phytotoxic solvent mixture which included a surfactant and applied preemergence to the surface of the pot containing seeds in a sandy loam soil. Untreated control pots and treated pots were placed in the greenhouse for growth and visually evaluated for injury 14 to 21 days after herbicide application. […] A dash (−) response means no test result.

[9] = test system: purple nutsedge; experiment: Test D purple nutsedge; format: in vivo, Cyperus rotundus; details: Preemergence, 0 to 100 scale
Method in brief: as §3

[10] = test system: Spanishneedles; experiment: Test D Spanishneedles; format: in vivo, Bidens bipinnata; details: Preemergence, 0 to 100 scale
Description: as §1, §2

[11] = test system: surinam grass; experiment: Test D surinam grass; format: in vivo, Brachiaria decumbens; details: Preemergence, 0 to 100 scale
Description: as §1, §2

[12] = test system: Green foxtail; experiment: Test D green foxtail; format: in vivo; details: Preemergence, 0 to 100 scale
Method in brief: as §3

[13] = test system: Green foxtail; experiment: Test D green foxtail; format: in vivo
Description: as §1, §2

[14] = Rate 16 g/ha, 0 no injury, 100 complete control
[15] = Rate 32 g/ha, 0 no injury, 100 complete control
[16] = Rate 64 g/ha, 0 no injury, 100 complete control
[17] = Rate 125 g/ha, 0 no injury, 100 complete control
[18] = Rate 64 g/ha, Preemergence; 0 to 100 scale, 0 no injury, 100 complete control
[19] = Rate 125 g/ha, Preemergence; 0 to 100 scale, 0 no injury, 100 complete control

## CC(C)N(C(=O)n1oc(=O)n(C2CC2)c1=O)c1ccc(F)cc1 [Compound 242]
[1]; [14]
  Plant response rating, Bermudagrass: 80
[1]; [15]
  Plant response rating, Bermudagrass: 85
[1]; [16]
  Plant response rating, Bermudagrass: 85
[1]; [17]
  Plant response rating, Bermudagrass: 98
[1]; Rate 250 g/ha
  Plant response rating, Bermudagrass: 100
[1]; Rate 500 g/ha
  Plant response rating, Bermudagrass: 100
[2]; [14]
  Plant response rating, C. purslane: 0
[2]; [15]
  Plant response rating, C. purslane: 0
[2]; [16]
  Plant response rating, C. purslane: 0
[2]; [17]
  Plant response rating, C. purslane: 0
[2]; Rate 250 g/ha
  Plant response rating, C. purslane: 0
[2]; Rate 500 g/ha
  Plant response rating, C. purslane: 0
[3]; [14]
  Plant response rating, C. ragweed: 100
[3]; [15]
  Plant response rating, C. ragweed: 100
[3]; [16]
  Plant response rating, C. ragweed: 100
[3]; [17]
  Plant response rating, C. ragweed: 100
[3]; Rate 250 g/ha
  Plant response rating, C. ragweed: 100
[3]; Rate 500 g/ha
  Plant response rating, C. ragweed: 100
[4]; [14]
  Plant response rating, Dallisgrass: 65
[4]; [15]
  Plant response rating, Dallisgrass: 85
[4]; [16]
  Plant response rating, Dallisgrass: 98
[4]; [17]
  Plant response rating, Dallisgrass: 98
[4]; Rate 250 g/ha
  Plant response rating, Dallisgrass: 100
[4]; Rate 500 g/ha
  Plant response rating, Dallisgrass: 100
[5]; [14]
  Plant response rating, Guineagrass: 70
[5]; [15]
  Plant response rating, Guineagrass: 85
[5]; [16]
  Plant response rating, Guineagrass: 98
[5]; [17]
  Plant response rating, Guineagrass: 100
[5]; Rate 250 g/ha
  Plant response rating, Guineagrass: 100
[5]; Rate 500 g/ha
  Plant response rating, Guineagrass: 100
[6]; [14]
  Plant response rating, Itchgrass: 65
[6]; [15]
  Plant response rating, Itchgrass: 65
[6]; [16]
  Plant response rating, Itchgrass: 70
[6]; [17]
  Plant response rating, Itchgrass: 80
[6]; Rate 250 g/ha
  Plant response rating, Itchgrass: 98
[6]; Rate 500 g/ha
  Plant response rating, Itchgrass: 100
[7]; [14]
  Plant response rating, Large crabgrass: 90
[7]; [15]
  Plant response rating, Large crabgrass: 100
[7]; [16]
  Plant response rating, Large crabgrass: 100
[7]; [17]
  Plant response rating, Large crabgrass: 100
[7]; Rate 250 g/ha
  Plant response rating, Large crabgrass: 100
[7]; Rate 500 g/ha
  Plant response rating, Large crabgrass: 100
[8]; [14]
  Plant response rating, P. morninglory: 0
[8]; [15]
  Plant response rating, P. morninglory: 0
[8]; [16]
  Plant response rating, P. morninglory: 10
[8]; [17]
  Plant response rating, P. morninglory: 20
[8]; Rate 250 g/ha
  Plant response rating, P. morninglory: 20
[8]; Rate 500 g/ha
  Plant response rating, P. morninglory: 100
[9]; [14]
  Plant response rating, Purple nutsedge: 0
[9]; [15]
  Plant response rating, Purple nutsedge: 0
[9]; [16]
  Purple nutsedge plant response rating: 0
[9]; [17]
  Purple nutsedge plant response rating: 40
[9]; Rate 250 g/ha
  Plant response rating, Purple nutsedge: 60
[9]; Rate 500 g/ha
  Plant response rating, Purple nutsedge: 60
[10]; [14]
  Plant response rating, Spanishneedles: 0
[10]; [15]
  Plant response rating, Spanishneedles: 0
[10]; [16]
  Spanishneedles plant response rating: 0
[10]; [17]
  Spanishneedles plant response rating: 10
[10]; Rate 250 g/ha
  Plant response rating, Spanishneedles: 10
[10]; Rate 500 g/ha
  Plant response rating, Spanishneedles: 40
[11]; [14]
  Plant response rating, Surinam grass: 20
[11]; [15]
  Plant response rating, Surinam grass: 85
[11]; [16]
  Surinam grass plant response rating: 85
[11]; [17]
  Surinam grass plant response rating: 90
[11]; Rate 250 g/ha
  Plant response rating, Surinam grass: 100
[11]; Rate 500 g/ha
  Plant response rating, Surinam grass: 100
[12]; Rate 250 g/ha
  Plant response rating, Green foxtail: 100
[12]; Rate 500 g/ha
  Plant response rating, Green foxtail: 100
[13]; Preemergence; Rate 16 g/ha; 0 to 100 scale, 0 no injury, 100 complete control
  Plant response rating, Green foxtail: 80
[13]; Preemergence; Rate 32 g/ha; 0 to 100 scale, 0 no injury, 100 complete control
  Plant response rating, Green foxtail: 100
[13]; Rate 16 g/ha; Preemergence; 0 to 100 scale, 0 no injury, 100 complete control
  Plant response rating, Green foxtail: 80
[13]; [18]
  Green foxtail plant response rating: 100
  Plant response rating, Green foxtail: 100
[13]; [19]
  Green foxtail plant response rating: 100
  Plant response rating, Green foxtail: 100
[13]; Rate 250 g/ha; Preemergence; 0 to 100 scale
  Plant response rating, Green foxtail: 100
[13]; Rate 500 g/ha, Preemergence; 0 to 100 scale
  Plant response rating, Green foxtail: 100
